Data: patent US11970463B2, “Compounds and their use” (ASTRAZENECA AB, priority 2021, dated 2024)
≈ marks a conversion by molar mass, not a printed value. Where two headings read alike, the source gives them in different places.

How the values were obtained:
Human NLRP3 [1] = target: T1, Human NLRP3 (Homo sapiens (Human), UniProt Q96P20)
[2] = Solubility (Test F), McIlvaine buffer pH 6.5; assay type: physicochemical; settings: 25 °C, pH 6.5, aqueous buffer, thermodynamic from solid, McIlvaine buffer pH 6.5, 25° C., 24 to 72 h, theoretical maximum 200 μM
hERG = hERG (Homo sapiens (Human), UniProt Q12809); assay: hERG assay (Test D), SyncroPatch 384PE patch clamp, hERG-expressing CHO cells; assay type: cell-based; settings: rt
Human NLRP3 [3] = target: T1, Human NLRP3; settings: Test C IC50, IL-1β release, THP-1 cells, LPS 2 μg/mL 24 h, BzATP 1 mM
IL-1β production = assay: LPS/ATP test in mice, peritoneal IL-1β by ELISA; assay type: in vivo, BALB/cAJcl mice; settings: Mus musculus, LPS/ATP i.p.; for inhibition at 1 mg/kg: 1 mg/kg orally; for inhibition at 3 mg/kg: 3 mg/kg orally
Human NLRP3 [4] = target: T1, Human NLRP3; assay: Human NLRP3 speck formation assay (Test A), nigericin triggered ASC-speck formation in ASC-GFP reporter monocytes
Solubility (Test E) = assay type: physicochemical
[5] = disodium hydrogenphosphate-citric acid (McIlvaine) buffer

T1 sequence (Q96P20 whole entry): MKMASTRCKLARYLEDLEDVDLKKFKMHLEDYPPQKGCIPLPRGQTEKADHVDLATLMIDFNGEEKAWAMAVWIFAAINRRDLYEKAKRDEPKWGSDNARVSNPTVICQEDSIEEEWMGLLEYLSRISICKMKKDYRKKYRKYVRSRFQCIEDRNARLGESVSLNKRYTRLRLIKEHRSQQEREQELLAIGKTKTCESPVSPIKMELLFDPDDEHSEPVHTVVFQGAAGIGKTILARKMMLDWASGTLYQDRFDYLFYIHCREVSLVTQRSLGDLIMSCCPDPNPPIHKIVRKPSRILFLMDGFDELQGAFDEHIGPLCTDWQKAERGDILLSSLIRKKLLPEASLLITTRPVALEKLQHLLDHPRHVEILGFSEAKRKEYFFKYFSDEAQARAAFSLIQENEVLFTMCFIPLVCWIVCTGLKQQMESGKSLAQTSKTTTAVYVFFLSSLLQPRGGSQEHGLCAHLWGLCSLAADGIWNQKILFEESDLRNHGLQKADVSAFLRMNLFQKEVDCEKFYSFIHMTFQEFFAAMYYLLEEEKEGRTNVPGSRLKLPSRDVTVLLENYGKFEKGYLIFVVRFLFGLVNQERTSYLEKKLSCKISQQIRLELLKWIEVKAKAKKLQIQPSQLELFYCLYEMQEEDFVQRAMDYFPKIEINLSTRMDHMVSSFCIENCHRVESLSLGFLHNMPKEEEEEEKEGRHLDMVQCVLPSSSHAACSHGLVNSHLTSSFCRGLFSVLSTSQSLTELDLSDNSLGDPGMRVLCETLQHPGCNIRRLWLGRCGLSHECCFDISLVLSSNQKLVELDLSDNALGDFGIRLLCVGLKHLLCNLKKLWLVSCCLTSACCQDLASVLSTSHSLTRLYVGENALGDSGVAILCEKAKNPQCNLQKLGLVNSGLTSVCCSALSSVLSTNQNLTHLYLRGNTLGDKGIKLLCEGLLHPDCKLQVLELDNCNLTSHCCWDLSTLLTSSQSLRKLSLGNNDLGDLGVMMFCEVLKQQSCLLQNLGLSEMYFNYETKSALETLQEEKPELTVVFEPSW
hERG, sequence (Q12809 whole entry): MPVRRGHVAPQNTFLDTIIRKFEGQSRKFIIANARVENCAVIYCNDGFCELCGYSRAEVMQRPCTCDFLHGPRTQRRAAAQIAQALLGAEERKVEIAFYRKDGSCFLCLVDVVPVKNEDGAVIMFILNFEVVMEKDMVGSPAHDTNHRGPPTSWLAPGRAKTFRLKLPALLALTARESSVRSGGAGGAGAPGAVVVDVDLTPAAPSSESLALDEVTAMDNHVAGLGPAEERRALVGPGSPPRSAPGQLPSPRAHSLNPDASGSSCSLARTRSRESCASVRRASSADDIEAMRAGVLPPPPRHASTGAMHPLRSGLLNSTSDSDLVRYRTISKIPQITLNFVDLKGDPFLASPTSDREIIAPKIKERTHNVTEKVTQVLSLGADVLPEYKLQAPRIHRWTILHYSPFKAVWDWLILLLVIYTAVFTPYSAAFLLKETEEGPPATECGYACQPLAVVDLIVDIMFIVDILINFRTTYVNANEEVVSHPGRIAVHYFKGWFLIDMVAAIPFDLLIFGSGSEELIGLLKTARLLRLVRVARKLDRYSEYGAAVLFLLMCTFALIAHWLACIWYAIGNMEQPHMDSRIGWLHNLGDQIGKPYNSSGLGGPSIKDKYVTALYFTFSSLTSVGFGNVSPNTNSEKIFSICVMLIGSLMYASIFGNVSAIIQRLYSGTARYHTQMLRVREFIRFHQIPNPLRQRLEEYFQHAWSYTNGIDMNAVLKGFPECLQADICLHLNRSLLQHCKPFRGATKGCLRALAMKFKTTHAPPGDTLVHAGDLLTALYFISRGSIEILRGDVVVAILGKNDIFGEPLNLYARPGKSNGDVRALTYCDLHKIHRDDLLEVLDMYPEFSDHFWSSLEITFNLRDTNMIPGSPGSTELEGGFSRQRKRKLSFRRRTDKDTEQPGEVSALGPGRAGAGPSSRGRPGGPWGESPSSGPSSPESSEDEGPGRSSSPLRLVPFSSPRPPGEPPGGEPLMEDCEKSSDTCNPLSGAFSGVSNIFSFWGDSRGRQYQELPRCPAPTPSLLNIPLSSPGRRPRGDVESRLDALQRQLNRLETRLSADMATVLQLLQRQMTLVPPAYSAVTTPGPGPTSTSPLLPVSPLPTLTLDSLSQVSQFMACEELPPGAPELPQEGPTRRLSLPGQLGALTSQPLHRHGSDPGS

SMILES	IC50 (Human NLRP3 [1]) [nM]	solubility [2, 5] [µg/mL]	IC50 (Human NLRP3 [3]) [nM]	EC50 (Human NLRP3 [4]) [nM]	solubility (Solubility (Test E)) [µM]	solubility [2] [µg/mL]	IC50 (hERG) [nM]	inhibition at 1 mg/kg (IL-1β production) [%]	inhibition at 3 mg/kg (IL-1β production) [%]
OC[C@@H](O)CNc1nnc(-c2c(O)cc(C(F)(F)F)cc2F)c2ccccc12 [Example 7, (2S)-3-[[4-[2-fluoro-6-hydroxy-4-(trifluoromethyl)phenyl]phthalazin-1-yl]amino]propane-1,2-diol]	47	70.3 (≈ 177 µM)	22	180	582 (≈ 231 µg/mL)		> 40000	46	95
OC[C@@H](O)CNc1nnc(-c2c(O)cc(Cl)cc2F)c2ccccc12 [Example 9, (2S)-3-[[4-(4-chloro-2-fluoro-6-hydroxy-phenyl)phthalazin-1-yl]amino]propane-1,2-diol]		67.3 (≈ 185 µM)	11	164					77
Oc1cc(C(F)(F)F)ccc1-c1nnc(N[C@H]2CCCC[C@H]2O)c2ccccc12 [Example 25, 2-[4-[[(1S,2R)-2-hydroxycyclohexyl]amino]phthalazin-1-yl]-5-(trifluoromethyl)phenol]	36	1.8 (≈ 4.46 µM)	8	80	3 (≈ 1.21 µg/mL)		7400		
Oc1cc(C(F)(F)F)cc(F)c1-c1nnc(N[C@@H]2CCC[C@H](O)C2)c2cnccc12 [Example 45, 3-fluoro-2-[4-[[(1R,3S)-3-hydroxycyclohexyl]amino]pyrido[3,4-d]pyridazin-1-yl]-5-(trifluoromethyl)phenol]	25	10.4 (≈ 24.6 µM)	9	44	121 (≈ 51.1 µg/mL)		> 40000		82
Oc1cc(Cl)cc(F)c1-c1nnc(N[C@@H]2CCC[C@H](O)C2)c2cnccc12 [Example 46, 5-chloro-3-fluoro-2-[4-[[(1R,3S)-3-hydroxycyclohexyl]amino]pyrido[3,4-d]pyridazin-1-yl]phenol]		> 77.8	3	37	941 (≈ 366 µg/mL)		> 40000	23	65
Oc1cc(C(F)(F)F)c(F)cc1-c1nnc(N[C@@H]2CCC[C@H](O)C2)c2cnccc12 [Example 53, 4-fluoro-2-[4-[[(1R,3S)-3-hydroxycyclohexyl]amino]pyrido[3,4-d]pyridazin-1-yl]-5-(trifluoromethyl)phenol]		62.5 (≈ 148 µM)	7						65
Oc1cc(C(F)(F)F)c(F)cc1-c1nnc(N[C@@H]2CCCC[C@H]2O)c2cnccc12 [Example 54, 4-fluoro-2-[4-[[(1R,2R)-2-hydroxycyclohexyl]amino]pyrido[3,4-d]pyridazin-1-yl]-5-(trifluoromethyl)phenol]		45.7 (≈ 108 µM)	4						55
Oc1cc(C(F)(F)F)cc(F)c1-c1nnc(N[C@@H]2CCCC[C@H]2O)c2cnccc12 [Example 55, 3-fluoro-2-[4-[[(1R,2R)-2-hydroxycyclohexyl]amino]pyrido[3,4-d]pyridazin-1-yl]-5-(trifluoromethyl)phenol]		8.8 (≈ 20.8 µM)	6	38	529 (≈ 223 µg/mL)		> 40000		91
Oc1cc(OC(F)(F)F)ccc1-c1nnc(N[C@@H]2CCCC[C@H]2O)c2cnccc12 [Example 56, 2-[4-[[(1R,2R)-2-hydroxycyclohexyl]amino]pyrido[3,4-d]pyridazin-1-yl]-5-(trifluoromethoxy)phenol]	8	14.5 (≈ 34.5 µM)	3	25	263 (≈ 111 µg/mL)		19000		98
Oc1cc(Cl)cc(F)c1-c1nnc(N[C@@H]2CCCC[C@H]2O)c2cnccc12 [Example 57, 5-chloro-3-fluoro-2-[4-[[(1R,2R)-2-hydroxycyclohexyl]amino]pyrido[3,4-d]pyridazin-1-yl]phenol]		36.9 (≈ 94.9 µM)	5	17	596 (≈ 232 µg/mL)		> 40000	42	87

Second part, led by results:

IC50 (Human NLRP3 [1]) [nM]	solubility [2, 5] [µg/mL]	IC50 (Human NLRP3 [3]) [nM]	EC50 (Human NLRP3 [4]) [nM]	solubility (Solubility (Test E)) [µM]	solubility [2] [µg/mL]	SMILES	IC50 (hERG) [nM]	inhibition at 1 mg/kg (IL-1β production) [%]	inhibition at 3 mg/kg (IL-1β production) [%]
	56.3 (≈ 143 µM)	5	18	135 (≈ 53.1 µg/mL)		Cc1ccc2c(-c3ccc(C(F)(F)F)cc3O)nnc(NC[C@H](O)CO)c2c1 [Example 14, (2S)-3-[[4-[2-hydroxy-4-(trifluoromethyl)phenyl]-7-methyl-phthalazin-1-yl]amino]propane-1,2-diol]			75
16	> 80.9	9	27	810 (≈ 328 µg/mL)		C[C@@]1(O)CC[C@@H](Nc2nnc(-c3ccc(C(F)(F)F)cc3O)c3ccncc23)C1 [Example 38, 2-[4-[[(1R,3R)-3-hydroxy-3-methyl-cyclopentyl]amino]pyrido[3,4-d]pyridazin-1-yl]-5-(trifluoromethyl)phenol]	> 40000	29	83
18	10.2 (≈ 25.2 µM)	7	59	48 (≈ 19.4 µg/mL)		C[C@]1(O)CC[C@@H](Nc2nnc(-c3ccc(C(F)(F)F)cc3O)c3ccncc23)C1 [Example 39, 2-[4-[[(1R,3S)-3-hydroxy-3-methyl-cyclopentyl]amino]pyrido[3,4-d]pyridazin-1-yl]-5-(trifluoromethyl)phenol]			58
	8.6 (≈ 21.3 µM)					Oc1cc(C(F)(F)F)ccc1-c1nnc(N[C@@H]2CCC[C@H](O)C2)c2cnccc12 [Example 41, 2-[4-[[(1R,3S)-3-hydroxycyclohexyl]amino]pyrido[3,4-d]pyridazin-1-yl]-5-(trifluoromethyl)phenol]		94	99
14	80.4 (≈ 191 µM)	4	29	326 (≈ 137 µg/mL)		Oc1cc(OC(F)(F)F)ccc1-c1nnc(N[C@@H]2CCC[C@H](O)C2)c2cnccc12 [Example 48, 2-[4-[[(1R,3S)-3-hydroxycyclohexyl]amino]pyrido[3,4-d]pyridazin-1-yl]-5-(trifluoromethoxy)phenol]	> 40000		
9	> 78.1	5	16	47 (≈ 18.3 µg/mL)		Oc1cc(C(F)(F)F)ccc1-c1nnc(N[C@@H]2CC[C@@H](O)C2)c2cnccc12 [Example 59, 2-(4-(((1R,3R)-3-hydroxycyclopentyl)amino)pyrido[3,4-d]pyridazin-1-yl)-5-(trifluoromethyl)phenol]	> 40000	44	70
12	10.3 (≈ 26.4 µM)	< 3	17	26 (≈ 10.1 µg/mL)		Oc1cc(C(F)(F)F)ccc1-c1nnc(N[C@@H]2CC[C@H](O)C2)c2cnccc12 [Example 60, 2-(4-(((1R,3S)-3-hydroxycyclopentyl)amino)pyrido[3,4-d]pyridazin-1-yl)-5-(trifluoromethyl)phenol]	> 40000	60	97
		7	29	389 (≈ 163 µg/mL)	64 (≈ 153 µM)	C[C@@]1(O)CCC[C@@H](Nc2nnc(-c3ccc(C(F)(F)F)cc3O)c3ccncc23)C1 [Example 61, 2-[4-[[(1R,3R)-3-hydroxy-3-methyl-cyclohexyl]amino]pyrido[3,4-d]pyridazin-1-yl]-5-(trifluoromethyl)phenol]	34000		97
	25.7 (≈ 61.4 µM)	6	60	120 (≈ 50.2 µg/mL)		C[C@]1(O)CCC[C@@H](Nc2nnc(-c3ccc(C(F)(F)F)cc3O)c3ccncc23)C1 [Example 62, 2-[4-[[(1R,3S)-3-hydroxy-3-methyl-cyclohexyl]amino]pyrido[3,4-d]pyridazin-1-yl]-5-(trifluoromethyl)phenol]	> 40000		71
26	17.7 (≈ 46.8 µM)	10	67	5 (≈ 1.89 µg/mL)		CC(C)(O)CNc1nnc(-c2ccc(C(F)(F)F)cc2O)c2ccncc12 [Example 70, 2-[4-[(2-hydroxy-2-methyl-propyl)amino]pyrido[3,4-d]pyridazin-1-yl]-5-(trifluoromethyl)phenol]	> 40000		98
	12.1 (≈ 30.5 µM)	18	204	17 (≈ 6.74 µg/mL)		CC(C)(O)CNc1nnc(-c2c(O)cc(C(F)(F)F)cc2F)c2ccncc12 [Example 74, 3-fluoro-2-[4-[(2-hydroxy-2-methyl-propyl)amino]pyrido[3,4-d]pyridazin-1-yl]-5-(trifluoromethyl)phenol]			68
38	4.7 (≈ 12 µM)	20	129	47 (≈ 18.3 µg/mL)		Oc1cc(C(F)(F)F)ccc1-c1nnc(N[C@H]2CC[C@@H](O)C2)c2cnccc12 [Example 83, 2-[4-[[(1S,3R)-3-hydroxycyclopentyl]amino]pyrido[3,4-d]pyridazin-1-yl]-5-(trifluoromethyl)phenol]	> 40000		
